Measured values from patent US8476434B2, “Protein kinase modulators and method of use” (Amgen Inc., priority 2004, dated 2013).

The compounds below were run against T1, LCK KD GST (225-509) (Homo sapiens, UniProt P06239) (assay: LCK Homogenous Time Resolved Fluorescent (HTRF) kinase assay).
T1 construct: LCK KD GST (225-509); GST
Assay type: biochemical

T1 sequence (P06239 225-509): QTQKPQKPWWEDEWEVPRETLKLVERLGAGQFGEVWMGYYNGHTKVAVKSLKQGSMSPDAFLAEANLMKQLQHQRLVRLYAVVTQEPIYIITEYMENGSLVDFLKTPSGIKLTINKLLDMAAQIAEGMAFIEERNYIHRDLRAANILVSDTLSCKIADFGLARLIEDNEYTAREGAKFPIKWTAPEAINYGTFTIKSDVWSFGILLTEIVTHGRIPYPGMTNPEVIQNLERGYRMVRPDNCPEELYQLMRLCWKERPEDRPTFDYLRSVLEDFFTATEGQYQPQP

IC50, < 1 µM:
CNc1ncnc(-c2cccnc2Oc2ccc(F)c(C(=O)Nc3cc(C(F)(F)F)ccc3N(C)CCCN(C)C)c2)n1 [N-(2-((3-(dimethylamino)propyl)(methyl)amino)-5-(trifluoromethyl)phenyl)-2-fluoro-5-((3-(4-(methylamino)-1,3,5-triazin-2-yl)-2-pyridinyl)oxy)benzamide]
CNc1cc(-c2cccnc2Oc2cc(C(=O)Nc3cc(C4CCCCC4)ccc3OC)ccc2C)ccn1 [N-(5-cyclohexyl-2-(methyloxy)phenyl)-4-methyl-3-((2′-(methylamino)-3,4′-bipyridin-2-yl)oxy)benzamide]
CNc1ncnc(-c2cccnc2Oc2cc(C(=O)Nc3cc(C(F)(F)F)ccc3N3CCCCC3)ccc2C)n1 [4-methyl-3-((3-(4-(methylamino)-1,3,5-triazin-2-yl)-2-pyridinyl)oxy)-N-(2-(1-piperidinyl)-5-(trifluoromethyl)phenyl)benzamide]
CNc1nccc(-c2cccnc2Oc2cc(NC(=O)c3cccc(N(C)C)c3)cc(C(F)(F)F)c2)n1 [3-(dimethylamino)-N-(3-((3-(2-(methylamino)-4-pyrimidinyl)-2-pyridinyl)oxy)-5-(trifluoromethyl)phenyl)benzamide]
CNc1cc(-c2cccnc2Oc2cc(C(=O)Nc3cccc(C(F)(F)F)c3)ccc2C)ncn1 [4-methyl-3-((3-(6-(methylamino)-4-pyrimidinyl)-2-pyridinyl)oxy)-N-(3-(trifluoromethyl)phenyl)benzamide]
CNc1ncnc(-c2cccnc2Oc2cc(NC(=O)c3cccc(OC(F)(F)F)c3)ccc2C)n1 [N-(4-methyl-3-((3-(4-(methylamino)-1,3,5-triazin-2-yl)-2-pyridinyl)oxy)phenyl)-3-((trifluoromethyl)oxy)benzamide]
CNc1nccc(-c2cccnc2Oc2cc(C(=O)Nc3cc(C(F)(F)F)ccc3N3CC[C@H](N(C)C)C3)ccc2C)n1 [N-(2-((3S)-3-(dimethylamino)-1-pyrrolidinyl)-5-(trifluoromethyl)phenyl)-4-methyl-3-((3-(2-(methylamino)-4-pyrimidinyl)-2-pyridinyl)oxy)benzamide]
CNc1nccc(-c2cccnc2Oc2cc(C(=O)Nc3cc(C(C)(C)C)ccc3OC)ccc2C)n1 [N-(5-(1,1-dimethylethyl)-2-(methyloxy)phenyl)-4-methyl-3-((3-(2-(methylamino)-4-pyrimidinyl)-2-pyridinyl)oxy)benzamide]
